# Patent US20260234147A1 (priority 2023, published 2026)
# Read-outs that look alike come from different tables or passages of the source.
# How the values were obtained:
# hMOR [1] = biological target: T1, hMOR (Homo sapiens, UniProt P35372); assay: cell-based; set-up: expressed in transfected cells; settings: CHO
# hDOR = hDOR (Homo sapiens, UniProt P41143); assay: Radioligand binding assay (Eurofins Cerep), [3H]DADLE displacement
# hMOR [2] = biological target: T1, hMOR; assay: Radioligand binding assay (Eurofins Cerep), [3H]DAMGO displacement
# α2A adrenergic receptor = biological target: T2, α2A adrenergic receptor (Homo sapiens, UniProt P08913); assay: Radioligand binding assay (Eurofins Cerep), [3H]RX 821002 displacement
# T2 construct: Eurofins Cerep (contract screening)
# T2 sequence (P08913 1-465): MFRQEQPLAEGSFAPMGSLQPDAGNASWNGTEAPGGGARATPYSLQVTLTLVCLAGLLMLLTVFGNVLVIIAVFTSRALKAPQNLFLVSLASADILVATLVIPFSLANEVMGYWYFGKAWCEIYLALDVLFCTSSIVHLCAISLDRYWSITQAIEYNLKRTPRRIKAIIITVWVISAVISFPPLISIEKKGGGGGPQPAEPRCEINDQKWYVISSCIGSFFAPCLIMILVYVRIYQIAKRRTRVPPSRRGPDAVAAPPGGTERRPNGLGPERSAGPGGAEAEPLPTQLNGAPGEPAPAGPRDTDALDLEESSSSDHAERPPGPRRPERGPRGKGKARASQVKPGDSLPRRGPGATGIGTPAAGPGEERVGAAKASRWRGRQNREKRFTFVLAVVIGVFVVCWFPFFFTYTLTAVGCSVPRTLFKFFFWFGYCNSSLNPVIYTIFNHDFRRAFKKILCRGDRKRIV
# α2C adrenergic receptor = biological target: T3, α2C adrenergic receptor (Homo sapiens, UniProt P18825); assay: as above
# T3 construct: Eurofins Cerep (contract screening)
# T3 sequence (P18825 1-462): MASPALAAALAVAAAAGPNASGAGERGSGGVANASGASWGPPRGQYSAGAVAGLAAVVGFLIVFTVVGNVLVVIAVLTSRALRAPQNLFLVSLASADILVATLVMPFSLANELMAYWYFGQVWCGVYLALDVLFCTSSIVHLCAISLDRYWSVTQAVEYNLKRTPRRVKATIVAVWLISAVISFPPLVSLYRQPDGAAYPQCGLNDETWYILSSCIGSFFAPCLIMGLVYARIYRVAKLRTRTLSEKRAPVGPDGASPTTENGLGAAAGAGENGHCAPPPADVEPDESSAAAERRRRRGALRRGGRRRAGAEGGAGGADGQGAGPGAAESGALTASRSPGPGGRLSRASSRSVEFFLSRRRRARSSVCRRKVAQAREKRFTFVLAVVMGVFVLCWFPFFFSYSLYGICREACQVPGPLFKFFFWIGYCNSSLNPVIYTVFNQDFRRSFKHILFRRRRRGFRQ
# hKOR = hKOR (Homo sapiens, UniProt P41145); assay: Radioligand binding assay (Eurofins Cerep), [3H]U69,593 displacement
# [3] = Metabolic stability in rat liver microsomes; assay type: in vitro ADME; settings: in vitro intrinsic clearance in RLM scaled to whole organ (rat)
# Experimental: In vitro metabolic stability of each compound was determined using rat liver microsomes in triplicate. Verapamil was used as a positive control to check the activity of the microsomes. The incubation mixtures consisted of rat liver microsomes (1 mg microsomal protein/ml), substrate (1 μM), and reduced NADPH (1 mM) in a total volume of 0.4 ml potassium phosphate buffer (50 mM, pH 7.4). Reactions were initiated with the addition of NADPH and kept in an incubator shaker at 37° C. Aliquots of 25 μl were withdrawn at 0, 5, 10, 15, 30, and 60 min and mixed with 125 μl of acetonitrile with formic acid (0.1% v/v) containing phenacetin (50 ng/ml; internal standard) for the termination of the reaction. The samples were then vortex mixed and filtered through a […] 96-well membrane filtration plate under centrifugation at speed of 2000×g for 5 min at 4° C. The filtrates were subjected to UPLC-mass spectrometry (MS/MS) analysis.
# The intrinsic clearance of the compounds was calculated using a half-life employing the ‘substrate depletion’ approach. The apparent half-life was calculated from the pseudo-first-order rate constants obtained by linear regression of log (concentration) and time plots. The in vitro intrinsic clearance of IFN was estimated using the formula: […]
# Where k is the slope of the line obtained by plotting the natural logarithmic of the percentage of parent remaining versus time and V is the volume of incubation.
# The in vitro intrinsic clearance was scaled to whole-organ (hepatic) in vivo intrinsic CL (CLint,H) using the scaling factors available in the literature using equation (Mahmood I. Application of allometric principles for the prediction of pharmacokinetics in human and veterinary drug development. Advanced drug delivery reviews, 2007, 59(11), 1177-1192)
# MPPGL represents the microsomal protein per gram of Sprague Dawley rat liver (45 mg/g) and liver weight per kg body weight was 40 g/kg.
# hMOR [4] = biological target: T1, hMOR; assay: Cyclic adenosine 3′,5′-monophosphate (cAMP) assay in hMOR-CHO cells; assay type: cell-based; settings: N=1, control agonist DAMGO
# [5] = Table 3-1, 3 independent experiments, read-out: Ki (nM ± SEM) DOR
# [6] = Table B1′, read-out: DOR Ki ± SEM
# [7] = Table 3-1, 3 independent experiments, read-out: Ki (nM ± SEM) a2A-AR
# [8] = Table B1′, read-out: alpha2A Ki ± SEM
# [9] = Ki (nM ± SEM) a2C-AR, Table 3-1, 3 independent experiments
# [10] = Table 3-1, 3 independent experiments, read-out: Ki (nM ± SEM) KOR
# [11] = Table B1′, read-out: KOR Ki ± SEM
# [12] = Table A1, data summary #1, read-out: KOR Ki ± SEM
# [13] = Table A4, data summary #2, read-out: KOR Ki ± SEM
# T1 sequence (P35372 whole entry): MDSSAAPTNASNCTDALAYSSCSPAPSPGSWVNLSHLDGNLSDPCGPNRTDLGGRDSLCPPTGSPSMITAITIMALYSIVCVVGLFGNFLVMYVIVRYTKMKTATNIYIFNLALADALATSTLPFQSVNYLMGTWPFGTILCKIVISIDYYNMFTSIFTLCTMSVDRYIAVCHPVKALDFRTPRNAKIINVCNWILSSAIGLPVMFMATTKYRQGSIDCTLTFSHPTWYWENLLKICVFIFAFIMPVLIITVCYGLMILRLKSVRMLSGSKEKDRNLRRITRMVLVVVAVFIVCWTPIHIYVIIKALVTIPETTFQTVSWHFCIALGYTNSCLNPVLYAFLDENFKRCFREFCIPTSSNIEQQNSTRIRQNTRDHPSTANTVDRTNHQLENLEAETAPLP
# Chain of hKOR (P41145 whole entry): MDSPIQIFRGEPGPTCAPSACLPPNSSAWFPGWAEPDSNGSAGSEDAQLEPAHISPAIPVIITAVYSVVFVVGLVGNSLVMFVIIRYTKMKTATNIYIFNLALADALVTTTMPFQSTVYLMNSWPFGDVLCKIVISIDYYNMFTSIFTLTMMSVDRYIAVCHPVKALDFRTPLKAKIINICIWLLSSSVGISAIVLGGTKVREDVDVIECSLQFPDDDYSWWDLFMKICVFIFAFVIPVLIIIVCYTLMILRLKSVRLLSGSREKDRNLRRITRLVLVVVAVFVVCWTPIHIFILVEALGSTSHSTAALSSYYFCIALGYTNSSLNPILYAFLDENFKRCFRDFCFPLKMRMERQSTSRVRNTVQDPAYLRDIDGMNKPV
# Chain of hDOR (P41143 whole entry): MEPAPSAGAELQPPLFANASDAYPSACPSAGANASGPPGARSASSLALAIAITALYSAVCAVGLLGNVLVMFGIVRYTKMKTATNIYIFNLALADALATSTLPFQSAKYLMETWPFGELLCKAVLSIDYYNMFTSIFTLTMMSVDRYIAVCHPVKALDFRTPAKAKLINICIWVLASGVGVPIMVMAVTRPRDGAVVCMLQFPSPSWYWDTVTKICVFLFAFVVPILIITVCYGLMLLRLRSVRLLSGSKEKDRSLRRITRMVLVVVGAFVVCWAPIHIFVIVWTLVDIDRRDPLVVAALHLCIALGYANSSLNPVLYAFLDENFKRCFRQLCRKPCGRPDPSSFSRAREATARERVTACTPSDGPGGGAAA
smiles,measurement,setting,value
"CC[C@@H]1CN2CCc3c([nH]c4ccccc34)[C@@H]2C[C@@H]1/C(=C\OC)C(=O)OC [Corynantheidine, reference compound]",Emax,hMOR [1]; read-out: MOR Emax ± SEM (%),8.32 ± 3.4%
same,Ki,hDOR; [5],2790 ± 171 nM
same,Ki,hDOR; [6],2410 ± 1200 nM
same,SR: Selectivity Ratio (KiMOR/Kiα2A),hMOR [2]; Table 3-1,0.97
same,Ki,"hMOR [2]; Table 3-7, human MOR, read-out: MOR Ki (nM ± SEM)",450 ± 100 nM
same,Ki,"hMOR [2]; Table B1′, read-out: MOR Ki ± SEM",2520 ± 372 nM
same,Ki,α2A adrenergic receptor; [7],351 ± 58.7 nM
same,Ki,α2A adrenergic receptor; [8],68 ± 12 nM
same,Ki,α2C adrenergic receptor; [9],135 ± 12.5 nM
same,Ki,hKOR; [10],4060 ± 969 nM
same,Ki,hKOR; [11],1030 ± 162 nM
"CC[C@@H]1CN2CCc3c([nH]c4cccc(OC)c34)[C@@H]2C[C@@H]1/C(=C\OC)C(=O)OC [Mitragynine, mitragynine, reference compound]",Emax,"hMOR [1]; read-out: MOR Emax ± SEM (% DAMGO), Table A1, data summary #1",3.97%
same,Emax,hMOR [1]; read-out: MOR Emax ± SEM (%),3.97 ± 9.5%
same,Ki,hDOR; [5],6800 ± 721 nM
same,Ki,"hDOR; Table A1, data summary #1, read-out: DOR Ki ± SEM",6800 nM
same,Ki,"hDOR; Table A4, data summary #2, read-out: DOR Ki ± SEM",1950 nM
same,Ki,hDOR; [6],6800 ± 721 nM
same,"Whole liver clearance, CL int, H",[3],2.13 L/h/kg
same,Ki,α2A adrenergic receptor; [7],4090 ± 273 nM
same,Ki,"α2A adrenergic receptor; Table A1, data summary #1, read-out: Alpha2A Ki ± SEM",4090 nM
same,Ki,"α2A adrenergic receptor; Table A4, data summary #2, read-out: Alpha2A Ki ± SEM",1350 nM
same,Ki,"α2A adrenergic receptor; Table B1, mean ± SEM, 3 independent experiments, read-out: Alpha2A Ki ± SEM",709 ± 91.2 nM
same,Ki,α2A adrenergic receptor; [8],4090 ± 273 nM
same,Ki,"α2A adrenergic receptor; Table B2, mean ± SEM, 3 independent experiments, read-out: Alpha2A Ki ± SEM",709 ± 91.2 nM
same,Ki,"α2C adrenergic receptor; Alpha2C Ki ± SEM (nM), Table A1, data summary #1",4040 nM
same,Ki,"α2C adrenergic receptor; Alpha2C Ki ± SEM (nM), Table B2, mean ± SEM, 3 independent experiments",4090 ± 372 nM
same,Ki,α2C adrenergic receptor; [9],4040 ± 417 nM
same,Ki,hKOR; [10],1530 ± 485 nM
same,Ki,hKOR; [12],1530 nM
same,Ki,hKOR; [13],264 nM
same,Ki,hKOR; [11],1530 ± 143 nM
"CC[C@@H]1CN2CCc3c([nH]c4cccc(OC)c34)[C@@H]2C[C@@H]1/C(=C\OC)C(=O)Nc1ccccc1 [SUSM-528, (E)-2-((2S,3S,12bS)-3-ethyl-8-methoxy-1,2,3,4,6,7,12,12b-octahydroindolo[2,3-a]quinolizin-2-yl)-3-methoxy-N-phenylacrylamide]",functional activity in cAMP assay,hMOR [4],"agonist, however its potency was less than DAMGO"
same,functional activity in cAMP assay,hMOR [4]; listed as SUSM 528,"agonist, but less potent than DAMGO"
same,Ki,"hDOR; DOR Ki ± SEM (nM), Table A4, data summary #2",> 10000 nM
same,Ki,"hMOR [2]; Table A1, data summary #1, read-out: MOR Ki ± SEM",7770 ± 3620 nM
same,Ki,"hMOR [2]; Table A4, data summary #2, read-out: MOR Ki ± SEM",498 ± 118 nM
same,Ki,"α2A adrenergic receptor; Alpha2A Ki ± SEM (nM), Table A1, data summary #1",6580 ± 2320 nM
same,Ki,"α2A adrenergic receptor; Alpha2A Ki ± SEM (nM), Table A4, data summary #2",6580 ± 2320 nM
same,Ki,hKOR; [12],> 10000 nM
same,Ki,hKOR; [13],6510 ± 4660 nM
